Article PMC3108470 (Journal of Medicinal Chemistry, 2011)

Key:
ΔF508-CFTR = ΔF508-CFTR (Homo sapiens, UniProt P13569, DEL508-508); assay: ΔF508-CFTR potentiator assay, HS-YFP fluorescence quenching; assay type: cell-based; details: FRT cells, forskolin 20 μM; Hill fit
guinea pig aortic strip = assay: Vasorelaxant activity, calcium-induced contraction of K+-depolarized; details: result in words
guinea pig left atrium = details: up to 10 μM; cited from earlier work

O=c1c(-c2ccc(O)cc2)coc2cc(O)cc(O)c12 [genistein, reference compound]
nH (Hill coefficient) (ΔF508-CFTR): 1.3
vascular effect in K+-depolarized (80 mM) vascular smooth muscle (guinea pig aortic strip): inactive
inotropic activity (guinea pig left atrium): positive inotropic activity
